The compounds below were run against Human immunodeficiency virus type 1 protease (Human immunodeficiency virus 1, UniProt Q72874) (assay: Inhibition of HIV protease).

Point of comparison: COc1ccc(S(=O)(=O)N(CC2CCCC2)C[C@@H](O)CN2C(=O)[C@@H](CCC(N)=O)OC[C@@H]2Cc2ccccc2)cc1, Ki 49 nM. Against it:
- COc1ccc(S(=O)(=O)N(CC2CCCC2)C[C@@H](O)CN2C(=O)[C@@H](CCN)OC[C@@H]2Cc2ccccc2)cc1 — 12-fold higher, 600 nM
- COc1ccc(S(=O)(=O)N(CC2CCCC2)N2C(=O)C3(CCOCC3)OC[C@@H]2Cc2ccccc2)cc1 — 2.1-fold lower, 23 nM
- COc1ccc(S(=O)(=O)N(CC2CCCC2)C[C@@H](O)CN2C(=O)[C@@H](CCC#N)OC[C@@H]2Cc2ccccc2)cc1 — 4.5-fold lower, 11 nM
- COc1ccc(S(=O)(=O)N(CC2CCCC2)C[C@@H](O)CN2C(=O)[C@@H](CCCN)OC[C@@H]2Cc2ccccc2)cc1 — 120-fold higher, 5800 nM
- COc1ccc(S(=O)(=O)N(CC2CCCC2)C[C@@H](O)CN2C(=O)C3(CCCCC3)OC[C@@H]2Cc2ccccc2)cc1 — 24-fold lower, 2 nM
- COc1ccc(S(=O)(=O)N(CC2CCCC2)C[C@@H](O)CN2C(=O)C3(CC3)OC[C@@H]2Cc2ccccc2)cc1 — 5.4-fold lower, 9 nM
- COc1ccc(S(=O)(=O)N(CC2CCCC2)C[C@@H](O)CN2C(=O)[C@H](Cc3cccc(C#N)c3)OC[C@@H]2Cc2ccccc2)cc1 — 10-fold higher, 490 nM
- COc1ccc(S(=O)(=O)N(CC2CCCC2)C[C@@H](O)CN2C(=O)[C@H](C)OC[C@@H]2Cc2ccccc2)cc1 — within 1.5-fold, 38 nM
- COc1ccc(S(=O)(=O)N(CC2CCCC2)C[C@@H](O)CN2C(=O)[C@@H](CCO)OC[C@@H]2Cc2ccccc2)cc1 — 1.6-fold lower, 30 nM
- C=CC[C@H]1OC[C@H](Cc2ccccc2)N(C[C@H](O)CN(CC2CCCC2)S(=O)(=O)c2ccc(OC)cc2)C1=O — 24-fold lower, 2 nM
- C=CC[C@@H]1OC[C@H](Cc2ccccc2)N(C[C@H](O)CN(CC2CCCC2)S(=O)(=O)c2ccc(OC)cc2)C1=O — 5.5-fold higher, 270 nM
- COc1ccc(S(=O)(=O)N(CC2CCCC2)C[C@@H](O)CN2C(=O)[C@@H](CCN=[N+]=[N-])OC[C@@H]2Cc2ccccc2)cc1 — 1.7-fold higher, 81 nM
- COc1ccc(S(=O)(=O)N(CC2CCCC2)C[C@@H](O)CN2C(=O)[C@@H](Cc3cccc(C#N)c3)OC[C@@H]2Cc2ccccc2)cc1 — within 1.5-fold, 55 nM
- COc1ccc(S(=O)(=O)N(CC2CCCC2)C[C@@H](O)CN2C(=O)[C@@H](Cc3ccccc3)OC[C@@H]2Cc2ccccc2)cc1 — within 1.5-fold, 35 nM

— ChEMBL document CHEMBL1146907, “New, potent P1/P2-morpholinone-based HIV-protease inhibitors” (Bioorg Med Chem Lett, 2006)
